The values below come from patent US20120253264A1, “PHOTOCHEMICAL INTERNALIZATION METHOD” (priority 2009, published 2012).

Where two headings read alike, the source gives them in different places.

A short description of series [1]: Stability of aqueous solutions of TPPS2a and TPCS2a salts at 40° C. for 31 days, analyzed by HPLC. Type of series: physicochemical. The method, then: Aqueous solutions of TPPS2a salts (approx. 1% weight) were kept at 40° C. for 31 days. The solutions were analyzed by HPLC(HP 1100). The HPLC conditions were as follows:
Column: Agilent Extend C-18
Mobile phase: 85% methanol, 15% water
Detector: UV detector, 415 nm
Aqueous solutions of TPCS2a salts (approx. 1% weight) were kept at 40° C. for 31 days.

Series [2] is described as follows: Solubility in water of TPPS2a and TPCS2a salts (water added in 0.2 ml portions to approx. 50 mg).
Description: (§1) The mixture was agitated until solid particles were broken up and dissolved.
as §1

Where [3] appears, read: TPPS2a salts, aqueous solution approx. 1% weight, 40° C., 31 days, HPLC UV 415 nm.

For `NCCO.NCCO.O=S(=O)(O)c1ccc(-c2c3nc(c(-c4ccc(S(=O)(=O)O)cc4)c4ccc([nH]4)c(-c4ccccc4)c4nc(c(-c5ccccc5)c5ccc2[nH]5)C=C4)C=C3)cc1` [Example 1, Meso-Tetraphenyl Porphyrin Disulphonate Bis(Monoethanolamine)], the Degradation result in series [1] (setting [3]) is reported as “No degradation”. As for `CNCC(O)C(O)C(O)C(O)CO.CNCC(O)C(O)C(O)C(O)CO.O=S(=O)(O)c1ccc(-c2c3nc(c(-c4ccccc4)c4ccc([nH]4)c(-c4ccccc4)c4nc(c(-c5ccc(S(=O)(=O)O)cc5)c5ccc2[nH]5)C=C4)C=C3)cc1` [Example 2, Meso-Tetraphenyl Porphyrin Disulphonate Bis(Meglumate)], in series [2], the “Minimum solubility in water” value was 89.7 mg/mL. Further, the Degradation result in series [1] is on record as “No degradation”. Consider `O=S(=O)(O)c1ccc(-c2c3nc(c(-c4ccccc4)c4ccc([nH]4)c(-c4ccccc4)c4nc(c(-c5ccc(S(=O)(=O)O)cc5)c5ccc2[nH]5)C=C4)C=C3)cc1.OCCNCCO.OCCNCCO` [Example 4, Meso-Tetraphenyl Porphyrin Disulphonate Bis(Diethanolamine)], for which, in series [1], the Degradation result is given as “No degradation”. `O=S(=O)(O)c1ccc(-c2c3nc(c(-c4ccc(S(=O)(=O)O)cc4)c4ccc([nH]4)c(-c4ccccc4)c4nc(c(-c5ccccc5)c5ccc2[nH]5)C=C4)C=C3)cc1.OCCN1CCCC1.OCCN1CCCC1` [Example 5, Meso-Tetraphenyl Porphyrin Disulphonate Bis(1-(2-Hydroxyethyl)Pyrrolidine)]: the Degradation result in series [1] was “No degradation”. As for `O=S(=O)(O)c1ccc(-c2c3nc(c(-c4ccc(S(=O)(=O)O)cc4)c4ccc([nH]4)c(-c4ccccc4)c4nc(c(-c5ccccc5)c5ccc2[nH]5)C=C4)C=C3)cc1.OCCN(CCO)CCO.OCCN(CCO)CCO` [Example 6, Meso-Tetraphenyl Porphyrin Disulphonate Bis(Triethanolamine)], in series [1] (setting [3]), the Degradation entry is recorded as “No degradation”. With “Meso-Tetraphenyl Chlorin Disulphonate Bis(Meglumate) [Example 8]”, in series [2] (TPCS2a salts, water added in 0.2 ml portions to approx. 50 mg until dissolved), the “Minimum solubility in water” value was 38.9 mg/mL. For the same compound, in series [1] (TPCS2a salts, aqueous solution approx. 1% weight, 40° C., 31 days, HPLC), the Degradation result is “No degradation”. On to “Meso-Tetraphenyl Chlorin Disulphonate Bis(Monoethanolamine) [Example 7]”, for which the Degradation result in series [1] is given as “No degradation”.
